Laboratory results: article PMC9570109, “Improved Trimethylangelicin Analogs for Cystic Fibrosis: Design, Synthesis and Preliminary Screening” (International Journal of Molecular Sciences, 2022)

Key:
salmon testes DNA = experiment: Photoadduct formation with DNA under UVA irradiation (TLC analysis); details: 15 J/cm2 UVA
Method: The total energy that struck the sample was monitored by means of a radiometer (Variocontrol, Waldmann, Villingen-Schwenningen, Germany), equipped with a Variocontrol UV Sensor (Waldmann). The radiant power emitted by the UVA lamp was about […]. The samples were maintained at room temperature during irradiation.
The test compounds were dissolved in ethanol (2 mg/mL) and salmon testes DNA (Sigma-Aldrich) was dissolved in 10 mM NaCl and 1 mM EDTA solution (1.5 × 10^−3 M). Each test solution (250 μL) was added dropwise to the DNA solution (5 mL). The mixture was irradiated with 15 J/cm2 UVA light in a glass dish for 1 h. After irradiation, the DNA was precipitated with 1 M NaCl and two volumes of cold ethanol; the precipitated DNA was collected, washed with 80% ethanol, dried, and then dissolved in water. To obtain hydrolysis, the final solution was acidified with 1 M HCl, heated at 100 °C for 1 h, neutralized with NaOH and extracted three times with chloroform. Then, all of the organic layers were collected, dried under a high vacuum, and dissolved in ethanol. The hydrolyzed mixtures were separated by thin layer chromatography (TLC; F254 plates, 0.25 mm, Merck, Darmstadt, Germany) eluting with EtOAc/EtOH (9:1). The plates were analyzed with a Mineral Light Lamp VL-4LC VILBERT-LOURMAT (Vilber, Marne-la-Vallée, France).

[1] = system: Salmonella typhimurium TA97A; experiment: Ames mutagenicity assay, plate incorporation, TA97A; assay type: cell-based
Method: (§1) The mutagenicity assay was performed for the test compounds following the plate incorporation method with the histidine-requiring Salmonella typhimurium mutant TA97A, TA98, TA100, and TA1535 strains purchased by Molecular Toxicology Inc. (Boone, NC, USA; moltox.com). All strains (100 µL per plate of fresh overnight cultures) were checked with and without the addition of 0.5 mL of a 5% S9 exogenous metabolic activator (S9 mix). The lyophilized post-mitochondrial supernatant S9 mix (Aroclor 1254-induced, Sprague–Dawley male rat liver in 0.154 M KCl solution), commonly used for the activation of pro-mutagens in mutagenic metabolites (Molecular Toxicology, Inc., Boone, NC, USA), was stored at −80 °C before use. The concentration tested for all the samples were 5, 10, 20, 50, and 100 µL/plate from a stock solution of 500 nM. A fully grown culture of the appropriate tester strain (0.1 mL) was added to 2 mL molten top agar (0.6% agar, 0.6% NaCl, 0.5 mM L-histidine/biotin solution) at 46 °C, together with 0.1 mL of each sample solution at different concentrations, and 0.5 mL S9 mix for assays with metabolic activation. The ingredients were thoroughly mixed and poured onto minimal glucose agar plates (1.5% agar in 2% Vogel–Bonner medium E with 5% glucose solution). DMSO was used as negative a control (100 µL/plate). Positive controls were prepared as follows: 2-aminoanthracene (2 µg/plate) and 2-nitrofluorene (2 µg/plate) for TA 97A, TA98 and TA1535 with and without metabolic activator (S9 mix), respectively; 2-aminoanthracene (2 µg/plate) and sodium azide (2 µg/plate) for TA100, with and without metabolic activator (S9 mix), respectively. The plates were incubated at 37 °C for 72 h and then his+ revertants were checked and counted using a Colony Counter 560 Suntex (Antibioticos, Italy). A sample was considered mutagenic when the observed number of colonies was at least twofold over the spontaneous level of revertants. All determinations were made in triplicate. Statistical analysis: relative standard deviations were calculated using the statistical software STATISTICA 6.0 (StatSoft, Italia srl, Vigonza, Italy). […]
(§2) Salmonella typhimurium TA97A Salmonella typhimurium TA98 Salmonella typhimurium TA100 Salmonella typhimurium 1535 […]
(§3) average SD t/c average SD t/c average SD t/c average SD t/c average SD t/c average SD t/c average SD t/c average SD t/c […]
(§4) *Significant values according to Ames computation (Maron & Ames, 1983); DMSO, C+: negative and positive controls respectively; SD: Standard Deviation; t/c: number of revertant colonies in treated plates/number of revertant colonies in […]

[2] = system: Salmonella typhimurium TA98; experiment: Ames mutagenicity assay, plate incorporation, TA98; assay type: cell-based
Method: as §1, §2, §3, §4

[3] = system: Salmonella typhimurium TA100; experiment: Ames mutagenicity assay, plate incorporation, TA100; assay type: cell-based
Method: as §1, §2, §3, §4

[4] = +S9, 5 µL/plate of 500 nM stock
[5] = +S9, 10 µL/plate of 500 nM stock
[6] = +S9, 20 µL/plate of 500 nM stock
[7] = +S9, 50 µL/plate of 500 nM stock
[8] = +S9, 100 µL/plate of 500 nM stock
[9] = -S9, 5 µL/plate of 500 nM stock
[10] = -S9, 10 µL/plate of 500 nM stock
[11] = -S9, 20 µL/plate of 500 nM stock
[12] = -S9, 50 µL/plate of 500 nM stock
[13] = -S9, 100 µL/plate of 500 nM stock
[14] = TA98, +S9, 5 µL/plate of 500 nM stock
[15] = TA98, +S9, 10 µL/plate of 500 nM stock
[16] = TA98, +S9, 20 µL/plate of 500 nM stock
[17] = TA98, +S9, 50 µL/plate of 500 nM stock
[18] = TA98, +S9, 100 µL/plate of 500 nM stock
[19] = TA98, -S9, 5 µL/plate of 500 nM stock
[20] = TA98, -S9, 10 µL/plate of 500 nM stock
[21] = TA98, -S9, 20 µL/plate of 500 nM stock
[22] = TA98, -S9, 50 µL/plate of 500 nM stock
[23] = TA98, -S9, 100 µL/plate of 500 nM stock
[24] = TA100, +S9, 5 µL/plate of 500 nM stock
[25] = TA100, +S9, 10 µL/plate of 500 nM stock
[26] = TA100, +S9, 20 µL/plate of 500 nM stock
[27] = TA100, +S9, 50 µL/plate of 500 nM stock
[28] = TA100, +S9, 100 µL/plate of 500 nM stock
[29] = TA100, -S9, 5 µL/plate of 500 nM stock
[30] = TA100, -S9, 10 µL/plate of 500 nM stock
[31] = TA100, -S9, 20 µL/plate of 500 nM stock
[32] = TA100, -S9, 50 µL/plate of 500 nM stock
[33] = TA100, -S9, 100 µL/plate of 500 nM stock

Cc1cc2c(-c3ccccc3)cc(=O)oc2c2c(C)coc12 [4-PhDMA]
photoadduct formation with DNA upon UVA irradiation (salmon testes DNA): only the unchanged bands
revertant colonies, average [1, 4]: 87.0
t/c (revertant colonies treated/untreated plates) [1, 4]: 0.8
revertant colonies, average [1, 5]: 117.0
t/c (revertant colonies treated/untreated plates) [1, 5]: 1.1
revertant colonies, average [1, 6]: 98.0
t/c (revertant colonies treated/untreated plates) [1, 6]: 0.9
revertant colonies, average [1, 7]: 94.0
t/c (revertant colonies treated/untreated plates) [1, 7]: 0.9
revertant colonies, average [1, 8]: 109.5
t/c (revertant colonies treated/untreated plates) [1, 8]: 1.0
revertant colonies, average [1, 9]: 79.5
t/c (revertant colonies treated/untreated plates) [1, 9]: 1.0
revertant colonies, average [1, 10]: 82.5
t/c (revertant colonies treated/untreated plates) [1, 10]: 1.1
revertant colonies, average [1, 11]: 82.0
t/c (revertant colonies treated/untreated plates) [1, 11]: 1.1
revertant colonies, average [1, 12]: 82.5
t/c (revertant colonies treated/untreated plates) [1, 12]: 1.1
revertant colonies, average [1, 13]: 82.5
t/c (revertant colonies treated/untreated plates) [1, 13]: 1.1
revertant colonies, average [2, 14]: 47.0
t/c (revertant colonies treated/untreated plates) [2, 14]: 1.0
revertant colonies, average [2, 15]: 49.0
t/c (revertant colonies treated/untreated plates) [2, 15]: 1.1
revertant colonies, average [2, 16]: 52.5
t/c (revertant colonies treated/untreated plates) [2, 16]: 1.1
revertant colonies, average [2, 17]: 47.5
t/c (revertant colonies treated/untreated plates) [2, 17]: 1.0
revertant colonies, average [2, 18]: 47.5
t/c (revertant colonies treated/untreated plates) [2, 18]: 1.0
revertant colonies, average [2, 19]: 39.0
t/c (revertant colonies treated/untreated plates) [2, 19]: 1.0
revertant colonies, average [2, 20]: 42.0
t/c (revertant colonies treated/untreated plates) [2, 20]: 1.1
revertant colonies, average [2, 21]: 38.5
t/c (revertant colonies treated/untreated plates) [2, 21]: 1.0
revertant colonies, average [2, 22]: 41.0
t/c (revertant colonies treated/untreated plates) [2, 22]: 1.1
revertant colonies, average [2, 23]: 41.0
t/c (revertant colonies treated/untreated plates) [2, 23]: 1.1
revertant colonies, average [3, 24]: 159.5
t/c (revertant colonies treated/untreated plates) [3, 24]: 0.9
revertant colonies, average [3, 25]: 193.0
t/c (revertant colonies treated/untreated plates) [3, 25]: 1.1
revertant colonies, average [3, 26]: 193.5
t/c (revertant colonies treated/untreated plates) [3, 26]: 1.1
revertant colonies, average [3, 27]: 187.5
t/c (revertant colonies treated/untreated plates) [3, 27]: 1.1
revertant colonies, average [3, 28]: 197.0
t/c (revertant colonies treated/untreated plates) [3, 28]: 1.2
revertant colonies, average [3, 29]: 208.5
t/c (revertant colonies treated/untreated plates) [3, 29]: 1.1
revertant colonies, average [3, 30]: 198.5
t/c (revertant colonies treated/untreated plates) [3, 30]: 1.0
revertant colonies, average [3, 31]: 207.0
t/c (revertant colonies treated/untreated plates) [3, 31]: 1.1
revertant colonies, average [3, 32]: 184.5
t/c (revertant colonies treated/untreated plates) [3, 32]: 0.9
revertant colonies, average [3, 33]: 179.0
t/c (revertant colonies treated/untreated plates) [3, 33]: 0.9

Cc1cc(=O)oc2c1cc(-c1ccccc1)c1occ(C)c12 [6-PhDMA]
photoadduct formation with DNA upon UVA irradiation (salmon testes DNA): only the unchanged bands
revertant colonies, average [1, 4]: 116.5
t/c (revertant colonies treated/untreated plates) [1, 4]: 1.1
revertant colonies, average [1, 5]: 92.5
t/c (revertant colonies treated/untreated plates) [1, 5]: 0.8
revertant colonies, average [1, 6]: 99.0
t/c (revertant colonies treated/untreated plates) [1, 6]: 0.9
revertant colonies, average [1, 7]: 107.0
t/c (revertant colonies treated/untreated plates) [1, 7]: 1.0
revertant colonies, average [1, 8]: 101.0
t/c (revertant colonies treated/untreated plates) [1, 8]: 0.9
revertant colonies, average [1, 9]: 75.0
t/c (revertant colonies treated/untreated plates) [1, 9]: 1.0
revertant colonies, average [1, 10]: 69.5
t/c (revertant colonies treated/untreated plates) [1, 10]: 0.9
revertant colonies, average [1, 11]: 86.5
t/c (revertant colonies treated/untreated plates) [1, 11]: 1.1
revertant colonies, average [1, 12]: 79.5
t/c (revertant colonies treated/untreated plates) [1, 12]: 1.0
revertant colonies, average [1, 13]: 88.5
t/c (revertant colonies treated/untreated plates) [1, 13]: 1.1
revertant colonies, average [2, 14]: 45.5
t/c (revertant colonies treated/untreated plates) [2, 14]: 1.0
revertant colonies, average [2, 15]: 49.5
t/c (revertant colonies treated/untreated plates) [2, 15]: 1.1
revertant colonies, average [2, 16]: 46.5
t/c (revertant colonies treated/untreated plates) [2, 16]: 1.0
revertant colonies, average [2, 17]: 46.0
t/c (revertant colonies treated/untreated plates) [2, 17]: 1.0
revertant colonies, average [2, 18]: 45.0
t/c (revertant colonies treated/untreated plates) [2, 18]: 1.0
revertant colonies, average [2, 19]: 37.5
t/c (revertant colonies treated/untreated plates) [2, 19]: 1.0
revertant colonies, average [2, 20]: 41.0
t/c (revertant colonies treated/untreated plates) [2, 20]: 1.1
revertant colonies, average [2, 21]: 38.0
t/c (revertant colonies treated/untreated plates) [2, 21]: 1.0
revertant colonies, average [2, 22]: 43.5
t/c (revertant colonies treated/untreated plates) [2, 22]: 1.1
revertant colonies, average [2, 23]: 40.0
t/c (revertant colonies treated/untreated plates) [2, 23]: 1.0
revertant colonies, average [3, 24]: 182.0
t/c (revertant colonies treated/untreated plates) [3, 24]: 1.1
revertant colonies, average [3, 25]: 178.5
t/c (revertant colonies treated/untreated plates) [3, 25]: 1.0
revertant colonies, average [3, 26]: 184.5
t/c (revertant colonies treated/untreated plates) [3, 26]: 1.1
revertant colonies, average [3, 27]: 178.0
t/c (revertant colonies treated/untreated plates) [3, 27]: 1.0
revertant colonies, average [3, 28]: 203.0
t/c (revertant colonies treated/untreated plates) [3, 28]: 1.2
revertant colonies, average [3, 29]: 186.5
t/c (revertant colonies treated/untreated plates) [3, 29]: 1.0
revertant colonies, average [3, 30]: 220.0
t/c (revertant colonies treated/untreated plates) [3, 30]: 1.1
revertant colonies, average [3, 31]: 172.0
t/c (revertant colonies treated/untreated plates) [3, 31]: 0.9
revertant colonies, average [3, 32]: 202.5
t/c (revertant colonies treated/untreated plates) [3, 32]: 1.0
revertant colonies, average [3, 33]: 185.5
t/c (revertant colonies treated/untreated plates) [3, 33]: 0.9
